Experiment [1] addresses T1, human B1R receptor (hB1R) (Homo sapiens, UniProt P46663).
T1 construct: host or cells: CHO K1 cells
T1 sequence (P46663 1-353): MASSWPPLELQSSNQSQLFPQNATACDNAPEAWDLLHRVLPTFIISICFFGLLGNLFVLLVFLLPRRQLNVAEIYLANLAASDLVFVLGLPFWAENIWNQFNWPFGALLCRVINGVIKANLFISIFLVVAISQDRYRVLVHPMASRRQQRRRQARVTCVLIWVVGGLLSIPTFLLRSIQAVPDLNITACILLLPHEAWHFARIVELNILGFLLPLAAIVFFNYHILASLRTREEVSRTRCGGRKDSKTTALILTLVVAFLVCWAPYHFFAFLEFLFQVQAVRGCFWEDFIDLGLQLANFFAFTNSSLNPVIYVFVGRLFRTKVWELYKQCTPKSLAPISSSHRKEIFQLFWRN
Nature of the experiment: FLIPR Ca2+ assay on human bradykinin 1 receptor (CHO K1 hB1R cells). Type of experiment: cell-based. The settings on record: test substance 10 μM; CHO K1 cells with human B1R gene; agonist Lys-Des-Arg9-bradykinin 0.5 nM; compared to maximum achievable inhibition. Summed up:
(§1)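 CHO K1 cells stably expressing human or rat B1R were loaded with Fluo-4 and tested at 10 μM compound. Ca²⁺ signal was read in FLIPR as % activation versus agonist. After 10 min, agonist was added (hB1R: Lys-Des-Arg9-bradykinin 0.5 nM; rB1R: Des-Arg9-bradykinin 100 nM), and % inhibition was taken relative to maximum achievable inhibition.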

Experiment [2] addresses T2, B1R receptor of rats (rB1R) (Rattus norvegicus, UniProt P97583).
T2 construct: host or cells: CHO K1 cells
T2 sequence (P97583 1-337): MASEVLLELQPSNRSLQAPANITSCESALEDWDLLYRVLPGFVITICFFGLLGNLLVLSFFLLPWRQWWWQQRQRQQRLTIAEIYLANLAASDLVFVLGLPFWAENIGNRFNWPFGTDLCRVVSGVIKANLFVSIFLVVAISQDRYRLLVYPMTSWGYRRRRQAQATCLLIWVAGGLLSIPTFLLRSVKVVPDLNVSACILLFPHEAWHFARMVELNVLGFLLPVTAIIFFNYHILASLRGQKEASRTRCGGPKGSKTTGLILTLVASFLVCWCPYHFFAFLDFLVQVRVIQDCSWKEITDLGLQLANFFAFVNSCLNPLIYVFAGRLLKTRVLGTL
In words: FLIPR Ca2+ assay on rat bradykinin 1 receptor (CHO K1 rB1R cells). Type of experiment: cell-based. The conditions noted are these: test substance 10 μM; CHO K1 cells with B1R gene of rats; agonist Des-Arg9-bradykinin 100 nM; compared to maximum achievable inhibition. Summed up: as §1

Molecules are shown by their SMILES.

On to `CCCCC1c2ccc(CN(C)C)n2CCN1C(=O)COCCN(C)S(=O)(=O)c1cc(C)c(OC)c(C)c1C` (centres unmarked) [Example 111, N-(2-(2-(1-butyl-6-((dimethylamino)methyl)-3,4-dihydropyrrolo[1,2-a]pyrazin-2(1H)-yl)-2-oxoethoxy)ethyl)-4-methoxy-N,2,3,5-tetramethylbenzene-sulfonamide], for which the inhibition at 10 µM in experiment [1] and in experiment [2] was 100% in each case.

As to `COc1c(C)cc(S(=O)(=O)N(C)CCOCC(=O)N2CCn3c(CN(C)C)ccc3C2c2cccs2)c(C)c1C` (centres unmarked) [Example 112, N-(2-(2-(6-((dimethylamino)methyl)-1-(thiophen-2-yl)-3,4-dihydropyrrolo[1,2-a]pyrazin-2(1H)-yl)-2-oxoethoxy)ethyl)-4-methoxy-N,2,3,5-tetramethylbenzene-sulfonamide], the inhibition at 10 µM in experiment [1] and in experiment [2] was 101% each time.

On to `CCC1c2ccc(CN(C)C)n2CCN1C(=O)COCCN(C)S(=O)(=O)c1cc(C)c(OC)c(C)c1C` (centres unmarked) [Example 113, N-(2-(2-(6-((dimethylamino)methyl)-1-ethyl-3,4-dihydropyrrolo[1,2-a]pyrazin-2(1H)-yl)-2-oxoethoxy)ethyl)-4-methoxy-N,2,3,5-tetramethylbenzenesulfonamide], for which the inhibition (as a rule, the change of the read-out against control, counted positive when it falls) at 10 µM is 103% in experiment [1] and 93% in experiment [2].

As for `CCC1c2cccn2CCN1C(=O)COCCN(C)S(=O)(=O)c1cc(C)c(OC)c(C)c1C` (centres unmarked) [Example 114, N-(2-(2-(1-ethyl-3,4-dihydropyrrolo[1,2-a]pyrazin-2(1H)-yl)-2-oxoethoxy)ethyl)-4-methoxy-N,2,3,5-tetramethylbenzenesulfonamide], the values for the inhibition at 10 µM in experiment [1] and in experiment [2] were 80% and 42%, respectively.

On to `CCCC1c2cccn2CCN1C(=O)COCCN(C)S(=O)(=O)c1cc(C)c(OC)c(C)c1C` (centres unmarked) [Example 115, 4-methoxy-N,2,3,5-tetramethyl-N-(2-(2-oxo-2-(1-propyl-3,4-dihydropyrrolo[1,2-a]pyrazin-2(1H)-yl)ethoxy)ethyl)benzenesulfonamide], for which the inhibition at 10 µM in experiment [1] was determined as 91%; in experiment [2], 97%.

Regarding `COc1cc(C)c(S(=O)(=O)N(CCOCC(=O)N2CCn3c(CN4CCCC4)ccc3C2c2ccccc2)Cc2ccccc2)c(C)c1C` (centres unmarked) [Example 116, N-benzyl-4-methoxy-2,3,6-trimethyl-N-(2-(2-oxo-2-(1-phenyl-6-(pyrrolidin-1-ylmethyl)-3,4-dihydropyrrolo[1,2-a]pyrazin-2(1H)-yl)ethoxy)ethyl)benzene-sulfonamide], the figures for the inhibition at 10 µM in experiment [1] and in experiment [2] were 103% and 102%, respectively.

`COc1cc(C)c(S(=O)(=O)N(CCOCC(=O)N2CCn3c(CN4CCOCC4)ccc3C2c2ccccc2)Cc2ccccc2)c(C)c1C` (centres unmarked) [Example 117, N-benzyl-4-methoxy-2,3,6-trimethyl-N-(2-(2-(6-(morpholinomethyl)-1-phenyl-3,4-dihydropyrrolo[1,2-a]pyrazin-2(1H)-yl)-2-oxoethoxy)ethyl)benzene-sulfonamide]: the inhibition at 10 µM is 82% in experiment [1] and 88% in experiment [2].

In the case of `COc1cc(C)c(S(=O)(=O)N(CCOCC(=O)N2CCn3c(CN(C)C)ccc3C2Cc2ccccc2)Cc2ccccc2)c(C)c1C` (centres unmarked) [Example 118, N-benzyl-N-(2-(2-(1-benzyl-6-((dimethylamino)methyl)-3,4-dihydropyrrolo[1,2-a]pyrazin-2(1H)-yl)-2-oxoethoxy)ethyl)-4-methoxy-2,3,6-trimethylbenzene-sulfonamide], the inhibition at 10 µM in experiment [1] and in experiment [2] was 96% each time.

As for `COc1cc(C)c(S(=O)(=O)N(CCOCC(=O)N2CCn3c(CN(C)C)ccc3C2CCc2ccccc2)Cc2ccccc2)c(C)c1C` (centres unmarked) [Example 119, N-benzyl-N-(2-(2-(6-((dimethylamino)methyl)-1-phenethyl-3,4-dihydropyrrolo-[1,2-a]pyrazin-2(1H)-yl)-2-oxoethoxy)ethyl)-4-methoxy-2,3,6-trimethylbenzene-sulfonamide], the results for the inhibition at 10 µM in experiment [1] and in experiment [2] were 52% and 54%, respectively.

Regarding `CCCCC1c2ccc(CN(C)C)n2CCN1C(=O)COCCN(Cc1ccccc1)S(=O)(=O)c1c(C)cc(OC)c(C)c1C` (centres unmarked) [Example 120, N-benzyl-N-(2-(2-(1-butyl-6-((dimethylamino)methyl)-3,4-dihydropyrrolo[1,2-a]pyrazin-2(1H)-yl)-2-oxoethoxy)-ethyl)-4-methoxy-2,3,6-trimethyl-benzenesulfonamide], the inhibition at 10 µM was found to be 84% in experiment [1] and 92% in experiment [2].

Regarding `COc1cc(C)c(S(=O)(=O)N(CCOCC(=O)N2CCn3c(CN(C)C)ccc3C2c2cccs2)Cc2ccccc2)c(C)c1C` (centres unmarked) [Example 121, N-benzyl-N-(2-(2-(6-((dimethylamino)methyl)-1-(thiophen-2-yl)-3,4-dihydropyrrolo[1,2-a]pyrazin-2(1H)-yl)-2-oxoethoxy)ethyl)-4-methoxy-2,3,6-trimethylbenzene-sulfonamide], the inhibition at 10 µM in experiment [1] came to 101%; in experiment [2], 102%.

As to `CCCC1c2cccn2CCN1C(=O)COCCN(Cc1ccccc1)S(=O)(=O)c1c(C)cc(OC)c(C)c1C` (centres unmarked) [Example 123, N-benzyl-4-methoxy-2,3,6-trimethyl-N-(2-(2-oxo-2-(1-propyl-3,4-dihydropyrrolo[1,2-a]pyrazin-2(1H)-yl)ethoxy)ethyl)benzenesulfonamide], the results for the inhibition at 10 µM in experiment [1] and in experiment [2] were 41% and 86%, respectively.

As to `COc1cc(C)c(S(=O)(=O)N(CCOCC(=O)N2CCn3cccc3C2C(C)C)Cc2ccccc2)c(C)c1C` (centres unmarked) [Example 124, N-benzyl-N-(2-(2-(1-isopropyl-3,4-dihydropyrrolo[1,2-a]pyrazin-2(1H)-yl)-2-oxoethoxy)ethyl)-4-methoxy-2,3,6-trimethylbenzenesulfonamide], the inhibition at 10 µM in experiment [1] worked out at 58%; in experiment [2] it was 96%.

Take `COc1cc(C)c(S(=O)(=O)N(CCOCC(=O)N2CCn3cccc3C2CCc2ccccc2)Cc2ccccc2)c(C)c1` (centres unmarked) [Example 125, N-benzyl-4-methoxy-2,6-dimethyl-N-(2-(2-oxo-2-(1-phenethyl-3,4-dihydropyrrolo[1,2-a]pyrazin-2(1H)-yl)ethoxy)ethyl)benzenesulfonamide]: the inhibition at 10 µM in experiment [1] was 25%; in experiment [2], 78%.

Regarding `COc1cc(C)c(S(=O)(=O)N(CCOCC(=O)N2CCn3c(CN(C)C)ccc3C2c2ccccc2)Cc2ccccc2)c(C)c1` (centres unmarked) [Example 126, N-benzyl-N-(2-(2-(6-((dimethylamino)methyl)-1-phenyl-3,4-dihydropyrrolo[1,2-a]pyrazin-2(1H)-yl)-2-oxoethoxy)ethyl)-4-methoxy-2,6-dimethylbenzenesulfonamide], the inhibition at 10 µM in experiment [1] was 101%; in experiment [2], 102%.

Take `COc1cc(C)c(S(=O)(=O)N(CCOCC(=O)N2CCn3c(CN4CCCC4)ccc3C2c2ccccc2)Cc2ccccc2)c(C)c1` (centres unmarked) [Example 127, N-benzyl-4-methoxy-2,6-dimethyl-N-(2-(2-oxo-2-(1-phenyl-6-(pyrrolidin-1-ylmethyl)-3,4-dihydropyrrolo[1,2-a]pyrazin-2(1H)-yl)ethoxy)ethyl)benzene-sulfonamide]: the values for the inhibition at 10 µM in experiment [1] and in experiment [2] were 99% and 102%, respectively.

For `COc1cc(C)c(S(=O)(=O)N(CCOCC(=O)N2CCn3c(CN4CCCCC4)ccc3C2c2ccccc2)Cc2ccccc2)c(C)c1` (centres unmarked) [Example 128, N-benzyl-4-methoxy-2,6-dimethyl-N-(2-(2-oxo-2-(1-phenyl-6-(piperidin-1-ylmethyl)-3,4-dihydropyrrolo[1,2-a]pyrazin-2(1H)-yl)ethoxy)ethyl)benzene-sulfonamide], the inhibition at 10 µM in experiment [1] was determined as 101%; in experiment [2] it was 103%.

`COc1cc(C)c(S(=O)(=O)N(CCOCC(=O)N2CCn3c(CN(C)C)ccc3C2Cc2ccccc2)Cc2ccccc2)c(C)c1` (centres unmarked) [Example 129, N-benzyl-N-(2-(2-(1-benzyl-6-((dimethylamino)methyl)-3,4-dihydropyrrolo[1,2-a]pyrazin-2-(1H)-yl)-2-oxoethoxy)ethyl)-4-methoxy-2,6-dimethylbenzene-sulfonamide]: the “hB1R [10 μM] % Inhibition” value in experiment [1] came out at 100%. For the same compound, in experiment [2], the “rB1R [10 μM] % Inhibition” value amounted to 101%.

`COc1cc(C)c(S(=O)(=O)N(CCOCC(=O)N2CCn3c(CN(C)C)ccc3C2c2cccs2)Cc2ccccc2)c(C)c1` (centres unmarked) [Example 130, N-benzyl-N-(2-(2-(6-((dimethylamino)methyl)-1-(thiophen-2-yl)-3,4-dihydropyrrolo[1,2-a]pyrazin-2(1H)-yl)-2-oxoethoxy)ethyl)-4-methoxy-2,6-dimethyl-benzenesulfonamide]: the inhibition at 10 µM worked out at 104% in experiment [1] and 102% in experiment [2].

The values above are taken from patent US8263598B2, “Substituted sulfonamide compounds” (Gruenenthal GmbH, priority 2008, dated 2012).
